Converted amounts (≈) assume the structure as drawn. Values belong to the compound of their own block, whether it stands above or below them.
How the values were obtained:
Experiment in all cases: In vitro MIC, 2010 surveillance isolates
A. baumanii = type: cell-based
Acinetobacter spp = type: cell-based
E. cloacae CeftazS = type: cell-based; parameters: MIC90: unit: µg/mL
Enterobacter spp = type: cell-based
K. pneumoniae ESBL− = type: cell-based, Klebsiella pneumoniae
E. coli ESBL+ = type: cell-based, Escherichia coli
E. cloacae CeftazR = type: cell-based
K. oxytoca = type: cell-based
K. pneumoniae ESBL+ = type: cell-based, Klebsiella pneumoniae
E. coli ESBL− = type: cell-based, Escherichia coli

MIC90 (A. baumanii; Asia/Pac, N=275): > 8 µg/mL
MIC90 (A. baumanii; Europe, N=145): > 8 µg/mL
MIC90 (A. baumanii; L. Amer, N=275): > 8 µg/mL
MIC90 (A. baumanii; N America, N=154): > 8 µg/mL
MIC90 (Acinetobacter spp; Europe, N=43): > 8 µg/mL
MIC90 (Acinetobacter spp; N America, N=42): 8 µg/mL (≈ 26.7 µM)
MIC90 (E. cloacae CeftazS; Asia/Pac, N=100): 1 (1)
MIC90 (E. cloacae CeftazS; Europe, N=183): 0.5 µg/mL (≈ 1.67 µM)
MIC90 (E. cloacae CeftazS; L. Amer, N=57): 0.5 µg/mL (≈ 1.67 µM)
MIC90 (E. cloacae CeftazS; N America, N=210): 0.5 µg/mL (≈ 1.67 µM)
MIC90 (Enterobacter spp; Asia/Pac, N=52): 1 µg/mL (≈ 3.34 µM)
MIC90 (Enterobacter spp; Europe, N=82): 1 µg/mL (≈ 3.34 µM)
MIC90 (Enterobacter spp; L. Amer, N=42): 1 µg/mL (≈ 3.34 µM)
MIC90 (Enterobacter spp; N America, N=101): 1 (1)
MIC90 (K. pneumoniae ESBL−; Asia/Pac, N=189): 0.5 µg/mL (≈ 1.67 µM)
MIC90 (K. pneumoniae ESBL−; Europe, N=361): 0.25 µg/mL (≈ 0.835 µM)
MIC90 (K. pneumoniae ESBL−; L. Amer, N=160): 0.25 µg/mL (≈ 0.835 µM)
MIC90 (K. pneumoniae ESBL−; N America, N=671): 0.25 µg/mL (≈ 0.835 µM)
MIC90 (E. coli ESBL+; Asia/Pac, N=219): 0.25 µg/mL (≈ 0.835 µM)
MIC90 (E. coli ESBL+; Europe, N=274): 0.25 µg/mL (≈ 0.835 µM)
MIC90 (E. coli ESBL+; L. Amer, N=168): 0.25 µg/mL (≈ 0.835 µM)
MIC90 (E. coli ESBL+; N America, N=134): 0.25 µg/mL (≈ 0.835 µM)
MIC90 (E. cloacae CeftazR; Asia/Pac, N=63): 1 µg/mL (≈ 3.34 µM)
MIC90 (E. cloacae CeftazR; Europe, N=72): 1 µg/mL (≈ 3.34 µM)
MIC90 (E. cloacae CeftazR; L. Amer, N=42): 0.5 µg/mL (≈ 1.67 µM)
MIC90 (E. cloacae CeftazR; N America, N=77): 8 µg/mL (≈ 26.7 µM)
MIC90 (K. oxytoca; Asia/Pac, N=17): 0.5 µg/mL (≈ 1.67 µM)
MIC90 (K. oxytoca; Europe, N=158): 0.25 µg/mL (≈ 0.835 µM)
MIC90 (K. oxytoca; L. Amer, N=25): 0.25 µg/mL (≈ 0.835 µM)
MIC90 (K. oxytoca; N America, N=177): 0.25 µg/mL (≈ 0.835 µM)
MIC90 (K. pneumoniae ESBL+; Asia/Pac, N=124): > 8 µg/mL
MIC90 (K. pneumoniae ESBL+; Europe, N=151): 2 µg/mL (≈ 6.68 µM)
MIC90 (K. pneumoniae ESBL+; L. Amer, N=209): > 8 µg/mL
MIC90 (K. pneumoniae ESBL+; N America, N=108): > 8 µg/mL
MIC90 (E. coli ESBL−; Asia/Pac, N=282): ≤ 0.12 µg/mL
MIC90 (E. coli ESBL−; Europe, N=1533): ≤ 0.12 µg/mL
MIC90 (E. coli ESBL−; L. Amer, N=389): ≤ 0.12 µg/mL
MIC90 (E. coli ESBL−; N America, N=1172): ≤ 0.12 µg/mL
Compound: C[C@@H](O)[C@H]1C(=O)N2C(C(=O)O)=C(SCCN=CN)C[C@H]12 [Imipenem]
% R (resistance) (A. baumanii; Asia/Pac, Eucast breakpoints): 72.4%
% R (resistance) (A. baumanii; Europe, Eucast breakpoints): 66.2%
% R (resistance) (A. baumanii; L. Amer, CLSI breakpoints): 75.6%
% R (resistance) (A. baumanii; N America, CLSI breakpoints): 53.2%
% R (resistance) (Acinetobacter spp; Asia/Pac, Eucast breakpoints): 11.1%
% R (resistance) (Acinetobacter spp; Europe, Eucast breakpoints): 30.2%
% R (resistance) (Acinetobacter spp; L. Amer, CLSI breakpoints): 44.4%
% R (resistance) (Acinetobacter spp; N America, CLSI breakpoints): 4.8%
% R (resistance) (E. cloacae CeftazS; Europe, Eucast breakpoints): 0%
% R (resistance) (E. cloacae CeftazS; L. Amer, CLSI breakpoints): 0%
% R (resistance) (E. cloacae CeftazS; N America, CLSI breakpoints): 0%
% R (resistance) (Enterobacter spp; Asia/Pac, Eucast breakpoints): 0%
% R (resistance) (Enterobacter spp; Europe, Eucast breakpoints): 0%
% R (resistance) (Enterobacter spp; L. Amer, CLSI breakpoints): 0%
% R (resistance) (Enterobacter spp; N America, CLSI breakpoints): 1 (1) %
% R (resistance) (K. pneumoniae ESBL−; Asia/Pac, Eucast breakpoints): 0%
% R (resistance) (K. pneumoniae ESBL−; Europe, Eucast breakpoints): 0%
% R (resistance) (K. pneumoniae ESBL−; L. Amer, CLSI breakpoints): 0%
% R (resistance) (K. pneumoniae ESBL−; N America, CLSI breakpoints): 0%
% R (resistance) (E. coli ESBL+; Asia/Pac, Eucast breakpoints): 0.5%
% R (resistance) (E. coli ESBL+; Europe, Eucast breakpoints): 0%
% R (resistance) (E. coli ESBL+; L. Amer, CLSI breakpoints): 0.6%
% R (resistance) (E. coli ESBL+; N America, CLSI breakpoints): 0%
% R (resistance) (E. cloacae CeftazR; Asia/Pac, Eucast breakpoints): 0%
% R (resistance) (E. cloacae CeftazR; Europe, Eucast breakpoints): 1.4%
% R (resistance) (E. cloacae CeftazR; L. Amer, CLSI breakpoints): 0%
% R (resistance) (E. cloacae CeftazR; N America, CLSI breakpoints): 11.7%
% R (resistance) (K. oxytoca; Asia/Pac, Eucast breakpoints): 0%
% R (resistance) (K. oxytoca; Europe, Eucast breakpoints): 0%
% R (resistance) (K. oxytoca; L. Amer, CLSI breakpoints): 4%
% R (resistance) (K. oxytoca; N America, CLSI breakpoints): 0.6%
% R (resistance) (K. pneumoniae ESBL+; Asia/Pac, Eucast breakpoints): 10.5%
% R (resistance) (K. pneumoniae ESBL+; Europe, Eucast breakpoints): 7.9%
% R (resistance) (K. pneumoniae ESBL+; L. Amer, CLSI breakpoints): 18.7%
% R (resistance) (K. pneumoniae ESBL+; N America, CLSI breakpoints): 26.9%
% R (resistance) (E. coli ESBL−; Asia/Pac, Eucast breakpoints): 0%
% R (resistance) (E. coli ESBL−; Europe, Eucast breakpoints): 0%
% R (resistance) (E. coli ESBL−; L. Amer, CLSI breakpoints): 0%
% R (resistance) (E. coli ESBL−; N America, CLSI breakpoints): 0%

Compound: CC(C)(O/N=C(\C(=O)N[C@@H]1C(=O)N2C(C(=O)[O-])=C(C[n+]3ccccc3)CS[C@H]12)c1csc(N)n1)C(=O)O [ceftazidime]
resistance rates for ESBL-producing clinical isolates (E. coli ESBL+; E. coli): 50%
